These results are taken from ChEMBL document CHEMBL5137006, “Synthesis and Characterization of Transition-State Analogue Inhibitors against Human DNA Methyltransferase 1” (J Med Chem, 2022).

As usually defined, the IC50 is the concentration that inhibits the measured activity by half. Usually Kd stands for the concentration at which binding is half-saturated. Read a high Kd as weaker binding.

Test [1] concerns the target T1, DNA (cytosine-5)-methyltransferase 1 (Homo sapiens, UniProt P26358). Kind of test: Inhibition of human recombinant full-length DNMT1 expressed in Sf9 cells assessed as inhibition of methylated dI-dC formation using poly dI-dC and [Me-3H]SAM as substrate incubated for 2 hrs by liquid scintillation counting analysis.
Test [2] deals with T1, DNA (cytosine-5)-methyltransferase 1. Kind of test: Inhibition of DNMT1 in human HT-29 cells assessed as reduction of 5-methylcytosine in cellular DNA at 100 uM incubated for 96 hrs by nLC-MS analysis. It counts as cell-based.
Test [3] has the same target. Kind of test: Inhibition of human C-terminal domain DNMT1 catalytic domain (351 to 1600 residues) expressed in Escherichia coli BL21-CodonPlus (DE3)-RIL cells assessed as inhibition of methylated dI-dC formation using 1 ug/ml poly dI-dC and [Me-3H]SAM as substrate incubated for 2 hrs by liquid scintillation counting analysis.
The target is the same in test [4]. Kind of test: Inhibition of human C-terminal domain DNMT1 catalytic domain (351 to 1600 residues) expressed in Escherichia coli BL21-CodonPlus (DE3)-RIL cells assessed as inhibition of methylated dI-dC formation using 5 ug/ml poly dI-dC and [Me-3H]SAM as substrate incubated for 2 hrs by liquid scintillation counting analysis.
Test [5] shares this target. Kind of test: Inhibition of human C-terminal domain DNMT1 catalytic domain (351 to 1600 residues) expressed in Escherichia coli BL21-CodonPlus (DE3)-RIL cells assessed as inhibition of methylated dI-dC formation using 25 ug/ml poly dI-dC and [Me-3H]SAM as substrate incubated for 2 hrs by liquid scintillation counting analysis.
For test [6] the target is unchanged. Kind of test: Inhibition of human C-terminal domain DNMT1 catalytic domain (351 to 1600 residues) expressed in Escherichia coli BL21-CodonPlus (DE3)-RIL cells assessed as inhibition of methylated dI-dC formation using poly dI-dC and 1 uM [Me-3H]SAM as substrate incubated for 2 hrs by liquid scintillation counting analysis.
For test [7] the target is unchanged. Kind of test: Inhibition of human C-terminal domain DNMT1 catalytic domain (351 to 1600 residues) expressed in Escherichia coli BL21-CodonPlus (DE3)-RIL cells assessed as inhibition of methylated dI-dC formation using poly dI-dC and 6 uM [Me-3H]SAM as substrate incubated for 2 hrs by liquid scintillation counting analysis.
Test [8] has the same target. Kind of test: Inhibition of human C-terminal domain DNMT1 catalytic domain (351 to 1600 residues) expressed in Escherichia coli BL21-CodonPlus (DE3)-RIL cells assessed as inhibition of methylated dI-dC formation using poly dI-dC and 8 uM [Me-3H]SAM as substrate incubated for 2 hrs by liquid scintillation counting analysis.
The target is the same in test [9]. Kind of test: Inhibition of human C-terminal domain DNMT1 catalytic domain (351 to 1600 residues) expressed in Escherichia coli BL21-CodonPlus (DE3)-RIL cells assessed as inhibition of methylated dI-dC formation using poly dI-dC and 12 uM [Me-3H]SAM as substrate incubated for 2 hrs by liquid scintillation counting analysis.
Test [10] has the same target. Kind of test: Binding affinity to human C-terminal domain DNMT1 catalytic domain ([…] residues) expressed in Escherichia coli BL21-CodonPlus (DE3)-RIL cells by ultrafiltration binding assay.

The source made the active and inactive calls. No cut-off for these calls is given here.

T1 sequence (P26358 whole entry): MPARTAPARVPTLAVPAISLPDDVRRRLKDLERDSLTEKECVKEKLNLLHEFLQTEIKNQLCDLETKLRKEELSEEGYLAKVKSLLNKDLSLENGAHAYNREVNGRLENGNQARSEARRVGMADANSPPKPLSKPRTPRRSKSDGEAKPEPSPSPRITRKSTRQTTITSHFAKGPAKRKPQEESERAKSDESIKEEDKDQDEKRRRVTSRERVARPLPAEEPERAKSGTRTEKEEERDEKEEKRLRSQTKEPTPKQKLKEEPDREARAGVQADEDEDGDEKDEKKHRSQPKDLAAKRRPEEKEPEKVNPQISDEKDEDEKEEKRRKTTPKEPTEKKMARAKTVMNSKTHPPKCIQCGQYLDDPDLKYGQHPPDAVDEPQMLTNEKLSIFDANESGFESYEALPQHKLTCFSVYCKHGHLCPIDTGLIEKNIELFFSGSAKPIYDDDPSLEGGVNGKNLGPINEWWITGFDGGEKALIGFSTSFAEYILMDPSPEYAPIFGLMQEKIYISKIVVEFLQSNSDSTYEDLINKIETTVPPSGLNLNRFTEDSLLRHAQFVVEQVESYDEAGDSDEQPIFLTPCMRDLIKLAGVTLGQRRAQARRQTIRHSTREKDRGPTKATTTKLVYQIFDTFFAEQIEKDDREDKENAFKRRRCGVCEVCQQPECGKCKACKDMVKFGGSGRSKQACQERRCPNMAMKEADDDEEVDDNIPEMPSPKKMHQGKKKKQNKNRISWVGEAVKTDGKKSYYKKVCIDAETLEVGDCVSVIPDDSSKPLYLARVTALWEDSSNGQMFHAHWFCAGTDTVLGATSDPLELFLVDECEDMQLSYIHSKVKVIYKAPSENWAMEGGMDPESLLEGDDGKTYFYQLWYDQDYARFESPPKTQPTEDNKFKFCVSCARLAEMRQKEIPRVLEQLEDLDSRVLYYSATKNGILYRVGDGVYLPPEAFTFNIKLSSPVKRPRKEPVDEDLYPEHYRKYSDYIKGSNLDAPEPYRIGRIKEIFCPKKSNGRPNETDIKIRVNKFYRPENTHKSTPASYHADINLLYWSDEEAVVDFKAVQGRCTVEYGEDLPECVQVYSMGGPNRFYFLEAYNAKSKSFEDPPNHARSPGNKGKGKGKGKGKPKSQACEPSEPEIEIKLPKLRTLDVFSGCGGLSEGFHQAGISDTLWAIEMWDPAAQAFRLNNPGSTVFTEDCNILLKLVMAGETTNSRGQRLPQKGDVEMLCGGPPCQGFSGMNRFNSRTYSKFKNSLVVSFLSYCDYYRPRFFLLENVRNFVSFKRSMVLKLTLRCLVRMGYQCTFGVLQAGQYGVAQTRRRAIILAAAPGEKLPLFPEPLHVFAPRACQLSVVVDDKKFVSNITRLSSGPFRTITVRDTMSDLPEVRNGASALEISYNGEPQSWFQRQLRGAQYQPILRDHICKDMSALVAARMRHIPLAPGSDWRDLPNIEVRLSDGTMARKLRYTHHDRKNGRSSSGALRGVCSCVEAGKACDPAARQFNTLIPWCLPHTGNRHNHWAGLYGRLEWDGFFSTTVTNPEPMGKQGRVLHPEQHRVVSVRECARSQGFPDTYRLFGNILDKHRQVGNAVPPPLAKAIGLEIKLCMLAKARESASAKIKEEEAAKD

As to `Nc1nc(=O)n([C@H]2C[C@H](O)[C@@H](CO)O2)cc1CCCNC[C@H]1O[C@@H](n2cnc3c(N)ncnc32)[C@H](O)[C@@H]1O`, the IC50 in test [1] was determined as 10.3 µM.
On the same count and under the same terms, next, `NC1=NC(=O)N([C@H]2C[C@H](O)[C@@H](CO)O2)CN1CCCCCN(CC[C@H](N)C(=O)O)C[C@H]1O[C@@H](n2cnc3c(N)ncnc32)[C@H](O)[C@@H]1O`: 19.6 µM; `Nc1nc(=O)n([C@H]2C[C@H](O)[C@@H](CO)O2)cc1CCSC[C@H]1O[C@@H](n2cnc3c(N)ncnc32)[C@H](O)[C@@H]1O`: over 100 µM.
Same read-out and setting: next, `Nc1nc(=O)n([C@H]2C[C@H](O)[C@@H](CO)O2)cc1CNCC[C@H](N)C(=O)O`: 17.2 µM; `Nc1nc(=O)n([C@H]2C[C@H](O)[C@@H](CO)O2)cc1CSCCC[C@H]1O[C@@H](n2cnc3c(N)ncnc32)[C@H](O)[C@@H]1O`: 0.9 µM.
The same measure, in the same setting: next, `Nc1nc(=O)n([C@H]2C[C@H](O)[C@@H](CO)O2)cc1SCCN(CC[C@H](N)C(=O)O)C[C@H]1O[C@@H](n2cnc3c(N)ncnc32)[C@H](O)[C@@H]1O`: 3.6 µM.
Regarding `Nc1nc(=O)n([C@H]2C[C@H](O)[C@@H](CO)O2)cc1CCCN(CC[C@H](N)C(=O)O)C[C@H]1O[C@@H](n2cnc3c(N)ncnc32)[C@H](O)[C@@H]1O`, the IC50 in test [1] is 2.9 µM.
On the same count and under the same terms, the result for `Nc1nc(=O)n([C@H]2C[C@H](O)[C@@H](CO)O2)cc1CSC[C@H]1O[C@@H](n2cnc3c(N)ncnc32)[C@H](O)[C@@H]1O` reads over 100 µM.
On the same count and under the same terms, next, `Nc1nc(=O)n([C@H]2C[C@H](O)[C@@H](CO)O2)cc1CN(CC[C@H](N)C(=O)O)C[C@H]1O[C@@H](n2cnc3c(N)ncnc32)[C@H](O)[C@@H]1O`: 8.5 µM; `Nc1nc(=O)n([C@H]2C[C@H](O)[C@@H](CO)O2)cc1CCCSC[C@H]1O[C@@H](n2cnc3c(N)ncnc32)[C@H](O)[C@@H]1O`: over 100 µM.
`Nc1nc(=O)n([C@H]2C[C@H](O)[C@@H](CO)O2)cc1CNCCCC[C@H](N)C(=O)O`: in test [1], the half-inhibitory concentration (IC50) was determined as 2.7 µM.
Regarding `Nc1nc(=O)n([C@H]2C[C@H](O)[C@@H](CO)O2)cc1CSCC[C@H](N)C(=O)O`, the IC50 in test [1] stood at 7.2 µM.
Same read-out and setting: next, `Nc1nc(=O)n([C@H]2C[C@H](O)[C@@H](CO)O2)cc1CCN(CC[C@H](N)C(=O)O)C[C@H]1O[C@@H](n2cnc3c(N)ncnc32)[C@H](O)[C@@H]1O`: 10.3 µM.
Regarding `Nc1ncn(C2C[C@H](O)[C@@H](CO)O2)c(=O)n1` (stereo not given in full), the inhibition entry in test [2] is “Active”.
Take `Nc1nc(=O)n([C@H]2C[C@H](O)[C@@H](CO)O2)cc1CNCC(CC[C@H](N)C(=O)O)C[C@H]1O[C@@H](n2cnc3c(N)ncnc32)[C@H](O)[C@@H]1O` (stereo not given in full): the IC50 in test [1] is 1.2 µM; in test [3] it was 4 µM; in [4], 5.1 µM; in test [5], 5.4 µM; in test [6], 3.5 µM; in test [7] it was 6.1 µM. Also, the values for the IC50 in test [8] and in test [9] were 6.7 µM and 8.7 µM, respectively. Moreover, the Kd in [10] came to 7.3 µM.
Take `Nc1nc(=O)n([C@H]2C[C@H](O)[C@@H](CO)O2)cc1CSCCCC[C@H](N)C(=O)O`: in test [1], the 50% inhibitory concentration (IC50) was found to be 1.1 µM.
Same read-out and setting: the result for `Nc1nc(=O)n([C@H]2C[C@H](O)[C@@H](CO)O2)cc1CNC[C@H]1O[C@@H](n2cnc3c(N)ncnc32)[C@H](O)[C@@H]1O` reads 0.4 µM.
